Measurements taken from BindingDB's records for doi:10.1021/jm970200u (Northwestern University, 1997).
Where a SMILES comes first, the peptide text is derived from it. [ ]: non-standard residue; d: D form. The star is where a group is joined. dArg(NO2) = N=C(NCCC[C@@H](N)C(=O)O)N[N+](=O)[O-]; Arg(NO2) = N=C(NCCC[C@H](N)C(=O)O)N[N+](=O)[O-]; OBn = c1ccc(CO*)cc1

assay: Inhibition of Neuronal Nitric oxide synthase enzyme (nNOS)

Compared with `NC(=NCCC[C@H](N)C(=O)N[C@@H](Cc1ccccc1)C(=O)O)N[N+](=O)[O-]`, `COC(=O)[C@H](Cc1ccccc1)NC(=O)[C@@H](N)CCCN=C(N)N[N+](=O)[O-]` is 16-fold higher in Ki: 18 µM for the first, 290 µM for the second.

`COC(=O)[C@@H](CCCN=C(N)N[N+](=O)[O-])NC(=O)[C@H](N)Cc1ccccc1` and `COC(=O)[C@H](CCCN=C(N)N[N+](=O)[O-])NC(=O)[C@@H](N)Cc1ccccc1` are within 1.5-fold of each other in Ki: 400 µM for the first, 370 µM for the second.

`COC(=O)[C@@H](Cc1ccccc1)NC(=O)[C@@H](N)CCCN=C(N)N[N+](=O)[O-]` and `COC(=O)[C@@H](CCCN=C(N)N[N+](=O)[O-])NC(=O)[C@@H](N)Cc1ccccc1` are within 1.5-fold of each other in Ki: 92 µM for the first, 90 µM for the second.

Going from `NC(=NCCC[C@H](N)C(=O)N[C@@H](Cc1ccccc1)C(=O)OCc1ccccc1)N[N+](=O)[O-]` to `NC(=NCCC[C@H](NC(=O)[C@@H](N)Cc1ccccc1)C(=O)OCc1ccccc1)N[N+](=O)[O-]` (H-Phe-[Arg(NO2)]-OBn), the Ki rises from 55 µM to 110 µM (2-fold). The first binds more tightly here.

Going from `N=C(NCCC[C@@H](NC(=O)[C@H](N)Cc1ccccc1)C(=O)O)N[N+](=O)[O-]` [(2R)-2-{[(2R)-2-amino-3-phenylpropanoyl]amino}-5-{[(Z)-imino(nitroamino)methyl]amino}pentanoic acid] (H-[dF]-[dArg(NO2)]-OH) to `COC(=O)[C@@H](Cc1ccccc1)NC(=O)[C@H](N)CCCNC(=N)N[N+](=O)[O-]` [D-Nitroarginine,methoxy-D-phenylalanine,with 2M of hydrochloric acid], the Ki rises from 17 µM to 150 µM (8.8-fold).
